Data published in patent US20160375057A1, “THERAPEUTIC COMPOSITIONS AND METHODS INVOLVING CELL-PERMEABLE IRON” (priority 2015, published 2016).
Read-outs that look alike come from different tables or passages of the source.

Key:
[1] = system: MA148 ovarian cancer cells; test: Synergy of doxorubicin and FAC, CCK-8 viability, Compusyn CI/DRI (Example 5, FIG. 5, Tables 3-4); type: cell-based, Human
Protocol: FIG. 5. […] (Chou et al., 2006, Pharmacol Rev 58:621-628).
Subsequently, they were treated with different concentrations of Doxorubicin in the presence or absence of FAC 200 uM. […] Five different combinations of FAC and Doxorubicin were used in this study. […] Values below the dotted line indicate synergy.

[2] = system: A2780 ovarian cancer cells; test: Synergy of carboplatin and FAC, CCK-8 IC50 isobologram (Example 3, FIG. 3); details: read-out: IC50 (50% cell viability); agent alone, 48-hour treatment, CCK-8, A2780
Protocol: In these experiments, varying concentrations of the two reagents are added to tumor cells in an array format. Cytotoxicity was determined by CCK8 assay after 24 hours.
A2780 ovarian cancer cells were seeded into 96-well plates. […] Cell viability was determined by CCK-8 kit after 48-hour treatment with the drugs. […] IC50 values are shown as individual data points.

[3] = system: human umbilical vein endothelial cells (HUVEC); details: 100 ng/ml VEGF-A
Protocol: Human umbilical vein endothelial cells (HUVECs; Neuromics, Edina, Minn.) and HUVECs immortalized with h-TERT (ATCC CRL-4053, ATCC, Manassas, Va.) were cultured in endothelial cell growth media EGM-2 (Lonza, Basel, Switzerland). Lewis Lung Carcinoma (LLC) cells (ATCC CRL-1642, ATCC, Manassas, Va.) were grown in RPMI 1640 medium supplemented with 10% FBS, 1% glutamine, 1% penicillin-streptomycin and 1% sodium pyruvate. Female C57BL/6 wild-type (WT) mice were used as recipients (bred at the University of Minnesota specific pathogen free environment animal facility). All animals were sex and aged matched (6-8 weeks). All experimental protocols were approved by the University of Minnesota Institutional Animal Care and Use Committee. VEGF-A165 was purchased from R & D Systems (Minneapolis, Minn.). GELTREX Low-growth factor basement membrane matrix (Thermo Fisher Scientific, Inc., Waltham Mass.) was used for in vitro tube formation assay.
HUVEC were plated in 0.2% gelatin coated 96-well plates and allowed to attach for 24 hours. Subsequently they were starved in EBM-2 with 2% serum overnight. […] Cell viability was determined by CCK-8 assay (Dojindo Molecular Technologies, Inc., Rockville, Md.). VEGF-A induced effect was calculated by subtracting negative control values from all experimental groups. Proliferation was then calculated as percentage of the positive control.

[4] = system: Lewis Lung Carcinoma (LLC) MATRIGEL plugs, tumor blood vessels (CD31)
Protocol: FIG. 11. […] Tumor cells were injected into groups of mice subcutaneously in […] plugs. […] Histograms show mean levels of blood vessel length and branch points.
In another aspect, this disclosure describes methods of inhibiting angiogenesis in a subject. Generally, the methods involve co-administering cell-permeable iron and an anti-angiogenic chemotherapeutic agent. […] (FIG. 7).
One million LLC cells (in PBS) were mixed with […] (Corning, Inc., Corning, N.Y.) in a 3:1 ratio and injected subcutaneously into the dorsal flanks (bilateral sites) of 6-8 week old female C57BL/6 wild-type mice. Experimental […] plugs contained 200 μM FAC. Four days later, mice were treated with either saline (negative control) or 20 mg/kg FAC (in PBS) on alternate days for two weeks. After two weeks, mice were sacrificed, tumor plugs removed and photographed, a part of the […] plugs was snap-frozen, and another part of the […] plugs was fixed in 10% neutral formalin. Frozen tumor plugs (n=5 for saline and n=7 for FAC) were sectioned (15 μm), fixed with acetone at −20° C. for 10 minutes, rehydrated, and blocked in 1% BSA. Slides were then stained with PE-conjugated anti-mouse CD31 (1:100) overnight at 4° C., washed three times with PBS, stained with FITC-conjugated anti-alpha-SMA (1:500) for one hour at room temperature and counterstained with DAPI. Two sections per tumor plug were stained. Random areas (5-20) were imaged at 10× magnification using a Nikon AZ 100M Fluorescence Macro scope and at 20× magnification using a Leica DM5500 B microscope. CD31 vessel length and branching points (nodes) were quantified by morphometric analyses of fluorescent digital images using Reindeer Games plug-in functions for Adobe Photoshop, as previously described (Wild et al., 2000, Microvac Res 59(3):368-376). CD31 positive vessels co-staining with alpha- SMA were quantified similarly to quantitate mature vessels. Data in FIG. 11 show representative images of tumor sections stained with rat anti-mouse CD31-phycoerythrin conjugate.

[5] = system: MDA-MB-231-luc triple negative breast cancer cell line; details: 100 μM FAC alone without radiation, five days
Protocol: FIG. 12. […] Triple negative breast cancer cell line, MDA-MB-231-luc, was exposed to different doses of ionizing radiation (X-Ray) in the presence and absence of 100 μM FAC. Sets of cultures seeded at the same cell density were kept as a control for radiation-induced cell death.
500,000 highly metastatic human breast cancer cells (MDA-MB-231-luc, Caliper Life Sciences, PerkinElmer Inc., Hopkinton, Mass.) were seeded into six-well plates in RPMI-1640 medium (3.0 ml) supplemented with 10% fetal bovine serum and antibiotics. After four hours to allow cell attachment, sets of cultures were treated with 100 μM FAC. Equal volume of complete medium was added to control cultures. One of the plates was kept aside without any radiation. Other sets of cultures were exposed to ionizing radiation (X-ray) of varying doses. After radiation, cells were cultures for five days. Live cells were stained with Hoechest 33342 dye and photographed under UV light.

[6] = system: Burkitt's B-lymphoma cells; details: 14 days, 2 cells/well-50 cells/well
Protocol: FIG. 13. […] Burkitt's B-lymphoma cells were treated with FAC at different concentrations. Treated cells grown for 14 days at different cell density (2 cells/well-50 cells/well).

Burkitt's lymphoma cells = test: Lymphoma cell growth in vitro, FAC versus FC (FIG. 14); type: cell-based
Protocol: FIG. 14. […]. Burkitt's lymphoma cells were treated with either ferric ammonium citrate (FAC) or ferric citrate (FC). […]

[7] = system: MA148 ovarian cancer cells
Protocol: CI, combination index. CI<1.0 indicates synergy. Compusyn program (ComboSyn, Inc., Paramus, N.J.) was used to calculate CI and generate isobologram.
In these experiments, varying concentrations of the two reagents are added to tumor cells in an array format. Cytotoxicity was determined by CCK8 assay after 24 hours. […] An antagonistic effect (competition) would result in hyperbolic (bell-shaped) curve above the dotted line (additive effect).
Cells were allowed to attach for 24 hours after which they were pretreated with FAC 200 μM for 24 hours. […] After 24 hours, CCK-8 (10 μl) was added to each well and one hour later, absorbance at 450 nm was measured. Viability was calculated as percentage of the cells grown in complete medium (FIG. 4). […] Isobologram was generated using Compusyn program (ComboSyn, Inc., Paramus, N.J.). Dotted line is the predicted additive effect between two compounds. Values below the dotted line indicate synergy.

HUVECs = details: FAC 200 μM for 24 hours, complete medium, eight hours recording
Protocol: HUVECs were plated in 60 mm plates and allowed to grow and attach for 24 hours. Subsequently, one plate was treated with FAC 200 μM for 24 hours. Control and treated cells were trypsinized and 50,000 live cells were plated in 8 well (8W10E) electric cell substrate impedance sensing plate (ECIS, Applied BioPhysics, Inc., Troy, N.Y.). Cell attachment and spreading was confirmed by measuring electrical impedance. After reaching stable values of impedance in ohms, a clear wound of 250 micrometer was generated by applying elevated electrical pulse to the defined electrode. Wounded area is clear of cells and confirmed by a decrease in impedance. Cell movement into the wounded areas was recorded for eight hours at 15 minute intervals. Cell migration into the wounded area increases impedance and was continually recorded over a period of eight hours (FIG. 10). Error bars represent standard deviation (SD).

[8] = 20 mg/kg FAC on alternate days for two weeks

## COc1cccc2c1C(=O)c1c(O)c3c(c(O)c1C2=O)C[C@@](O)(C(=O)CO)C[C@@H]3O[C@H]1C[C@H](N)[C@H](O)[C@H](C)O1 [DOX, Doxorubicin, reference compound]
[1]; Fa 0.88386
  Dose DOX (DOX alone for this Fa): 47050.0
[1]; Fa 0.95196
  Dose DOX (DOX alone for this Fa): 178095.

## N.N.O=C([O-])C1(C(=O)[O-])CCC1.[Pt+2] [carboplatin, reference compound]
[2]
  IC50: 150 µM

## ferric ammonium citrate [FAC]
[1]; Fa 0.88386
  Dose FAC (FAC alone for this Fa): 2644.47
[1]; Fa 0.95196
  Dose FAC (FAC alone for this Fa): 6060.28
[3]; 50 μM FAC, 48 hours
  inhibition of VEGF-A-induced cell proliferation: complete inhibition
[3]; 200 μM FAC, 24 hours
  inhibition of VEGF-A-induced endothelial cell proliferation: completely inhibited
[4]; [8]
  total vessel length: inhibited
  vessel branches: inhibited
[4]; systemic injection of FAC, compared to mice receiving saline
  CD31 positive vessel density: significantly reduced
[5]
  cell viability: significant decrease in cell viability
[6]
  colony formation (clonogenic growth): completely inhibited
Burkitt's lymphoma cells
  inhibition of lymphoma cell growth: effective
  potency relative to ferric citrate at inhibiting lymphoma cell growth: more potent than ferric citrate (FC)
[7]; Fa 0.24288
  Dose FAC (FAC alone for this Fa): 121.297
[7]; Fa 0.24359
  Dose FAC (FAC alone for this Fa): 121.991
[7]; Fa 0.28253
  Dose FAC (FAC alone for this Fa): 164.074
[7]; Fa 0.29392
  Dose FAC (FAC alone for this Fa): 178.068
[7]; Fa 0.35541
  Dose FAC (FAC alone for this Fa): 269.444
[7]; Fa 0.36087
  Dose FAC (FAC alone for this Fa): 279.043
[7]; Fa 0.49929
  Dose FAC (FAC alone for this Fa): 645.092
[7]; Fa 0.61254
  Dose FAC (FAC alone for this Fa): 1272.12
[7]; Fa 0.66880
  Dose FAC (FAC alone for this Fa): 1824.65
[7]; Fa 0.87322
  Dose FAC (FAC alone for this Fa): 11126.4
HUVECs
  endothelial cell migration (electrical impedance, real time): inhibits
[2]
  IC50: 200 µM

## ferric citrate [FC]
Burkitt's lymphoma cells
  inhibition of lymphoma cell growth: effective
